Measured values as given in patent publication US11358969B2, “Indole AHR inhibitors and uses thereof” (Ikena Oncology, Inc., priority 2017, dated 2022).
Like-named read-outs stand apart in the source and are kept apart here.

Key:
Cyp1a1 = assay: In Vivo Mouse liver and spleen Cyp1a1 Modulation Assay (Example 1E); set-up: species or system C57BL/6 mice; settings: po, with AHR agonist VAG539 30 mg/kg po, qPCR
Method: C57BL/6 mice, female, 6-8 weeks old, weighing approximately 18-20 g were purchased from Shanghai Lingchang Biological Technology Co., Ltd or other certified vendors and used in the studies. Animal husbandry, feeding and health conditions are according to animal welfare guidelines. VAG539 (30 mg/kg, po) was used as AHRagonist, and test compounds were formulated in suitable vehicles, typically 0.5% methylcellulose).
C57BL/6 mice (n=3 per group) were treated with AHR agonist alone or with AHR agonist and test compounds. Animals were sacrificed at 4 or 10 hours after treatment upon which their livers and spleens were collected and subsequently analyzed by qPCR. Normalized fold induction of cyp1a1 was determined by comparing mCYP1A1 and mGAPDH counts (ct) according to: normalized fold=2^−ΔΔCt. The percent inhibition was calculated according to: […]

[1] = In Vitro Mouse liver S9 Metabolic Stability Assay (Example 1D); format: in vitro ADME; settings: CD-1 mouse liver S9, 1 μM compound, 1 mg/mL S9 protein, 37° C., NADPH regenerating system, UDPGA, PAPS
Procedure, shortened: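 Compound at 1 μM final (0.1% DMSO) incubated at 37° C with pooled CD-1 mouse liver S9 (1 mg/mL protein) plus NADPH-regenerating system, UDPGA and PAPS. Samples at 0 and 60 min quenched in cold acetonitrile with internal standard; LC-MS/MS analyte/IS peak-area ratios give % remaining at 60 min.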

[2] = Mouse Pharmacokinetic Study (Example 1C); format: in vivo; settings: mouse, plasma, CD-1 mice; for Vd: read-out: Vdss
Procedure, shortened: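 CD-1 mice dosed intravenously or by oral gavage; plasma sampled at 0.167, 0.5, 1, 2, 4, 6, 12 and 24 h post-dose. Samples analyzed by LC/MS/MS (MRM, positive mode) against a plasma standard curve of 1.0–3000 ng/mL; PK parameters from non-compartmental analysis.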

[3] = 4 h, read-out: Cyp1a1 inhibition, Liver, 4 h
[4] = 4 h, read-out: Cyp1a1 inhibition, Spleen, 4 h
[5] = 10 h, read-out: Cyp1a1 inhibition, Liver, 10 h

Row | Mouse S9 Stability: % Remaining After 60 Minutes [1] [%] | bioavailability ([2]; po, 30 mg/kg) [%] | AUC(0-inf) ([2]; iv, 3 mg/kg) [ng·h/mL] | AUC(0-t) ([2]; iv, 3 mg/kg) [ng·h/mL] | clearance ([2]; iv, 3 mg/kg) [mL/min/kg] | half-life ([2]; iv, 3 mg/kg) [h] | Vd ([2]; iv, 3 mg/kg) [L/kg] | AUC(0-inf) ([2]; po, 30 mg/kg) [ng·h/mL] | AUC(0-t) ([2]; po, 30 mg/kg) [ng·h/mL] | Cmax ([2]; po, 30 mg/kg) [ng/mL] | Tmax ([2]; po, 30 mg/kg) [h] | half-life ([2]; po, 30 mg/kg) [h] | Structure (SMILES) | inhibition at 30 mg/kg (Cyp1a1; [3]) [%] | inhibition at 5 mg/kg (Cyp1a1; [3]) [%] | inhibition at 5 mg/kg (Cyp1a1; [4]) [%] | inhibition at 10 mg/kg (Cyp1a1; [3]) [%] | inhibition at 10 mg/kg (Cyp1a1; [4]) [%] | inhibition at 25 mg/kg (Cyp1a1; [3]) [%] | inhibition at 5 mg/kg (Cyp1a1; [5]) [%] | inhibition at 10 mg/kg (Cyp1a1; [5]) [%] | other results
1 | 13 | 12 | 610 | 554 | 82 | 1.99 | 9.6 | 743 | 730 | 182 | 0.2 | 3.9 | CC(C)c1cnn2c(NCCc3c[nH]c4ccccc34)cc(-c3cncc(F)c3)nc12 [I-2, N-(2-(1H-indol-3-yl)ethyl)-5-(5-fluoropyridin-3-yl)-3-isopropylpyrazolo[1,5-a]pyrimidin-7-amine] | 50 |  |  |  |  |  |  |  | 
2 | 87 | 75 | 1210 | 1070 | 41.2 | 8.4 | 24 | 9140 | 7560 | 853 | 2 | 8.8 | CC(C)c1cnn2c(N[C@@H]3CCc4[nH]c5ccccc5c4C3)nc(-c3cncc(F)c3)nc12 [I-40, (3R)—N-[2-(5-Fluoro-3-pyridyl)-8-isopropyl-pyrazolo[1,5-a][1,3,5]triazin-4-yl]-2,3,4,9-tetrahydro-1H-carbazol-3-amine] |  | 77 | 34 | 93 | 74 | 98 | 48 | 75 | inhibition at 25 mg/kg (Cyp1a1; [4]): 96%; inhibition at 25 mg/kg (Cyp1a1; [5]): 97%
3 | 0 | 26 | 872 | 862 | 54.9 | 1.08 | 3.2 | 1990 | 1940 | 900 | 0.5 | 2.26 | Cc1cnn2c(NCCc3c[nH]c4ccccc34)cc(-c3cncc(F)c3)nc12 [I-70, 5-(5-Fluoro-3-pyridyl)-N-[2-(1H-indol-3-yl)ethyl]-3-methyl-pyrazolo[1,5-a]pyrimidin-7-amine] | 98 | 93 | 79 | 99 | 88 |  | 96 | 81 | inhibition at 1 mg/kg (Cyp1a1; [3]): 52%; inhibition at 1 mg/kg (Cyp1a1; [4]): 38%; inhibition at 2 mg/kg (Cyp1a1; [3]): 83%; inhibition at 2 mg/kg (Cyp1a1; [4]): 65%; inhibition at 1 mg/kg (Cyp1a1; [5]): 34%; inhibition at 2 mg/kg (Cyp1a1; [5]): 63%
4 | 34 | 79 | 1330 | 1200 | 37.5 | 8.52 | 19.6 | 10600 | 9650 | 1410 | 1 | 7.16 | Cc1cnn2c(N[C@@H]3CCc4[nH]c5ccccc5c4C3)nc(-c3cncc(F)c3)nc12 [I-201, (3R)—N-[2-(5-fluoro-3-pyridyl)-8-methyl-pyrazolo[1,5-a][1,3,5]triazin-4-yl]-2,3,4,9-tetrahydro-1H-carbazol-3-amine] |  | 58 | 40 | 72 | 46 | 86 | 44 | 59 | inhibition at 25 mg/kg (Cyp1a1; [4]): 72%; inhibition at 25 mg/kg (Cyp1a1; [5]): 97%
